In patent publication US9233061B2 (AMOREPACIFIC CORPORATION, priority 2011, dated 2016):

Assay: Precipitation of caffeine at low temperature (4° C.)
Type: physicochemical
Conditions: 3 days in a refrigerator (4° C.)

Amount of niacinamide necessary for inhibiting precipitation (caffeine content 1-3%): 0.5-1 time based on caffeine | Amount of niacinamide necessary for inhibiting precipitation (caffeine content 3-5%): 1-1.5 times based on caffeine | Amount of niacinamide necessary for inhibiting precipitation (caffeine content 5-10%): 1-2 times based on caffeine
SMILES: NC(=O)c1cccnc1 [niacinamide, Niacinamide]
